Source: PMC4830892, “A microarray-based approach to evaluate the functional significance of protein-binding motifs” (Analytical and Bioanalytical Chemistry, 2016)
Non-standard residues stand in square brackets, D forms with d. Residues, ends and D or L forms follow the SMILES beside them. pY = N[C@@H](Cc1ccc(OP(=O)(O)O)cc1)C(=O)O

Experiments:
[1] = target: α-phosphotyrosine antibody (α-pTyr 100); assay: Titration of α-pY antibody on peptide microarrays; format: binding; conditions: for Kd: peptide microarray, α-pY antibody 0.06 to 6.66 nM, 3 h at 4 °C, indirect immunofluorescence (Alexa633), bimolecular binding isotherm (Eq. 1), average ± standard deviation, six independent experiments
Procedure: (§1) Peptides that correspond to known interaction motifs involved in the formation of protein complexes in T cell signalling were purchased from EMC microcollections (Tübingen, Germany). All peptides carried an extra cysteine residue and a free N-terminus for immobilisation on the microarray substrates and a C-terminal amidation (see Electronic Supplementary Material (ESM), Table S1).
(§2) For generation of microarrays, peptide stock solutions (3 mM) in DMF were diluted 30 times with phosphate buffer (100 mM, pH 8) supplemented with 0.006 % (v/v) Triton X-100. N-Hydroxysuccinimide-preactivated slides served as substrates for immobilisation (Nexterion Slide H, Schott Nexterion/Peq-Lab, Erlangen, Germany) using a Nano-Plotter NP2.0 (GeSIM, Großerkmannshof, Germany), which employs piezo-driven pipetting tips to dispense peptide solutions. Microarray slides comprised 16 subarrays of doublets of each peptide. For each peptide, a volume of 1.2 nl was dispensed at a centre-to-centre spacing of 500 μm. During printing, temperature was maintained at 15 °C and air humidity at 65 %.
(§3) Sixteen incubation chambers with identical subarrays consisting of peptides derived from binding motifs of signalling proteins (see ESM Table S1) were generated by attaching a clip-on frame to the microarray substrate (ProPlate Multiarray System, Grace Biolabs, Molecular Probes, Eugene, OR, USA). The typical incubation volume for the subarrays was 50 μl. Microarrays were either incubated with an α-pY antibody (α-pTyr 100, 9411, Cell Signalling, Frankfurt am Main, Germany) at the indicated concentrations or co-incubated with cell lysate at the indicated concentrations for 3 h at 4 °C. Additionally, in another set of experiments, recombinant GRB2-SH2 was incubated on microarrays alone or co-incubated with cell lysate employing an α-penta HIS antibody (34600, Qiagen, Hilden, Germany) for the detection of His-tagged GRB2-SH2.
(§4) After incubation, microarrays were washed three times with washing buffer (PBS, 0.05 % (w/v) BSA, 0.05 % (w/v) Tween-20). For the detection of signals, microarrays were incubated with a secondary α-mouse antibody conjugated with Alexa633 (A-21050, Invitrogen) at a concentration of 1 μg/ml for 15 min at RT followed by a last washing step with washing buffer. Microarrays were dried with nitrogen and scanned using a ProScanArray (PerkinElmer Life Sciences, Waltham, Massachusetts), and the data were analysed using ArrayPro Analyzer software (Media Cybernetics, Silver Spring, USA) as described before. Final data represented the mean signal intensities corrected for the median of a ring-shaped local background surrounding the respective peptide spot. Titrations with α-pY antibody and GRB2-SH2 were performed to calculate dissociation constants (see below).
The resulting titration curves were fitted with Origin (OriginLab Corporation, v.6.1057, Northampton, USA) using a binding isotherm for a bimolecular interaction (Eq. 1):1 Fabs=Fmaxprot/Kd+prot Fabs represents the intensity of a microarray spot after background correction and [prot] the concentration of the titrated binder. Kd and Fmax were obtained from the fits.
To render this approach quantitative, first the affinities of the α-pY antibody towards the phosphotyrosine motifs of the microarrays were determined. […] The titration curves were fitted with a binding isotherm for a bimolecular interaction (Eq. 1, Fig. 2a, Table 1). In general, a coefficient of determination (R^2) of 0.8 was used as a cutoff in order to score a peptide as a binder. […] Regarding the poly-proline motif (PP) containing peptides present on the microarray, only on the peptide GAB2-509 in five experiments, a titration curve with an R^2 > 0.8 could be generated.

[2] = system: proteins in Jurkat cell lysate (total cellular proteome); assay: Competition of α-pY antibody binding with Jurkat cell lysate on peptide microarrays; conditions: for Kd: from EC50 and Kd α-pY by Cheng-Prusoff equation (Eq. 4), ± standard deviation
Procedure: as §1, §2
(§5) Jurkat T cell leukaemia cells were maintained in RPMI 1640 medium (PAN-Biotech, Aisenbach, Germany) supplemented with 10 % foetal calf serum at 37 °C in 5 % CO2. For the preparation of lysates, cells were resuspended in lysis buffer (1 % Triton X-100, 50 mM n-octyl-D-glucopyranoside (Fluka, Taufkirchen, Germany), 20 mM Tris, 1 mM EDTA, 150 mM NaCl, 1 mM Na3VO4, pH 7.5, and complete protease inhibitor cocktail (Roche Applied Science, Mannheim, Germany)). Incubation on ice for 1 h was followed by centrifugation at 20,000×g at 4 °C for 15 min to remove cell debris. Transmembrane proteins were extracted from lipid rafts by using N-octyl-D-glucopyranoside. Protein concentrations were measured by Bradford Assay.
as §3, §4
For determination of EC50 values for competition with cell lysate, curves were fitted according to2 y=y0+Ae^−x/t with y0 as the signal intensity of the α-pY antibody or the recombinant GRB2-SH2 domain without cell lysate, A the amplitude, x the protein concentration in lysate, and t the decay constant. […]

[3] = system: proteins in Jurkat cell lysate (total cellular proteome); assay: Competition of recombinant GRB2-SH2 binding with cell lysate on peptide microarrays
Procedure: as §5
The PCR product of the SH2 domain of GRB2 (GRB2-SH2) was cloned into the pET160/GW/D-TOPO vector (Invitrogen, Breda, The Netherlands), which contains a region encoding for a His-tag. The plasmid was used to perform a transformation into One Shot TOP10 competent cells (Invitrogen). […] The concentration of expressed protein was determined by photometric measurements at OD280. The concentration of GRB2-SH2 was determined in Western blots by quantitatively analysing obtained bands of purified GRB2-SH2 in an Odyssey Infrared Imaging System (Li-Cor Biosciences, Bad Homburg, Germany) in comparison with a bovine serum albumin (BSA) standard. […]

[4] = system: SH2 domain of GRB2 (GRB2-SH2); conditions: cited from earlier work; for binding to GRB2 / GRB2-SH2 (in words): Kd values of GRB2-SH2 described in recently published manuscript, ref [14]
Description: In contrast, the data points for LATpY191 and SHP1pY564, and SigpY437, ZAPpY319 and CDζpY72/83 were above or below the linear correlation defined by the first four peptides. […] SigpY437, in contrast, is a poor binder for which already low concent ...

SMILES: CC[C@H](C)[C@H](NC(=O)[C@H](CCC(=O)O)NC(=O)[C@H](CCCNC(=N)N)NC(=O)[C@H](CCC(=O)O)NC(=O)[C@H](CCC(=O)O)NC(=O)CNC(=O)[C@@H](N)CS)C(=O)N[C@@H](CCC(N)=O)C(=O)N[C@@H](Cc1ccc(OP(=O)(O)O)cc1)C(=O)N[C@@H](C)C(=O)N1CCC[C@H]1C(=O)N[C@@H](CC(C)C)C(=O)N[C@@H](CO)C(=O)N[C@@H](Cc1ccccc1)C(=O)N[C@@H](Cc1c[nH]cn1)C(=O)N[C@@H](CCCCN)C(=O)NCC(N)=O [SigpY437] (H-CGEEREIQ[pY]APLSFHKG-NH2)
- Kd [1]: 0.00066 ± 0.00046 µM
- Kd [2]: 22 ± 20 µM
- competition of GRB2-SH2 by cell lysate (in words) [3]: already low concentrations of lysate show full competition
- binding to GRB2 / GRB2-SH2 (in words) [4]: poor binder

SMILES: CC(C)C[C@H](NC(=O)[C@H](CCC(=O)O)NC(=O)[C@H](CCC(N)=O)NC(=O)[C@H](CO)NC(=O)[C@@H](NC(=O)[C@H](CC(N)=O)NC(=O)[C@@H](NC(=O)[C@H](Cc1ccc(OP(=O)(O)O)cc1)NC(=O)[C@H](CCC(=O)O)NC(=O)[C@H](CCCNC(=N)N)NC(=O)[C@H](CO)NC(=O)CNC(=O)[C@H](CC(=O)O)NC(=O)[C@H](CC(C)C)NC(=O)[C@H](CO)NC(=O)[C@H](C)NC(=O)[C@H](CCC(=O)O)NC(=O)[C@@H](N)CS)C(C)C)C(C)C)C(N)=O [LATpY191] (H-CEASLDGSRE[pY]VNVSQEL-NH2)
- affinity of the α-pY antibody (in words) ([1]; compared with the other pY peptides): high affinity
- Kd [1]: 0.00035 ± 0.00028 µM
- Kd [2]: 16 ± 15 µM
- loss of signal of the α-pY antibody on competition with cell lysate ([2]; result in words, Jurkat lysate up to 180 μM total protein): total loss of signal
- competition of GRB2-SH2 by cell lysate (in words) [3]: rather small competition
- affinity for the SH2 domain of GRB2 (in words) ([4]; ref [25], [26]): strong affinity

SMILES: CC(C)C[C@H](NC(=O)[C@H](CCC(=O)O)NC(=O)[C@H](CCC(N)=O)NC(=O)[C@H](CC(C)C)NC(=O)[C@H](CC(N)=O)NC(=O)[C@H](CCC(=O)O)NC(=O)[C@H](Cc1ccc(OP(=O)(O)O)cc1)NC(=O)[C@H](CC(=O)O)NC(=O)[C@@H]1CCCN1C(=O)[C@H](C)NC(=O)CNC(=O)[C@H](CCC(=O)O)NC(=O)[C@H](CCC(=O)O)NC(=O)[C@H](CCC(=O)O)NC(=O)[C@@H](NC(=O)[C@H](CCC(=O)O)NC(=O)[C@@H](N)CS)C(C)C)C(=O)N[C@@H](CC(N)=O)C(N)=O [LATpY226] (H-CEVEEEGAPD[pY]ENLQELN-NH2)
- Kd [1]: 0.00044 ± 0.00027 µM
- Kd [2]: 15 ± 11 µM
- binding to GRB2 / GRB2-SH2 (in words) [4]: good binder

SMILES: CSCC[C@H](NC(=O)[C@@H]1CCCN1C(=O)[C@H](CC(N)=O)NC(=O)[C@H](C)NC(=O)[C@H](CCC(=O)O)NC(=O)[C@@H](NC(=O)[C@H](Cc1ccc(OP(=O)(O)O)cc1)NC(=O)[C@H](Cc1ccccc1)NC(=O)CNC(=O)[C@@H]1CCCN1C(=O)[C@H](CC(N)=O)NC(=O)[C@H](CCCNC(=N)N)NC(=O)CNC(=O)[C@H](CCC(=O)O)NC(=O)[C@@H](N)CS)C(C)C)C(=O)N1CCC[C@H]1C(=O)N[C@H](C(N)=O)[C@@H](C)O [PLCγpY783] (H-CEGRNPGF[pY]VEANPMPT-NH2)
- Kd [1]: 0.00055 ± 0.00033 µM
- Kd [2]: 7 ± 2 µM
- binding to GRB2 / GRB2-SH2 (in words) [4]: good binder
